“And” between values parts separate entries of the source, which are not always exact repeats. Equal entries are not always repeated. Numbered stars: 1 amine (or outer) side, 2 acyl side, 3 side chain; on linkers, the order of the positions; unused ones are H or OH. Bridge positions count the residues as written; N and C are the ends. Square brackets hold non-standard residues; d marks the D form. Peptide text beside a SMILES is read from it. * marks the point of attachment. ξ: configuration not given here. Orn(4R-OH,5R-OCH2CH2NMe3+) = C[N+](C)(C)CCO[C@@H](N[*:3])[C@H](O)C[C@H](N[*:1])C(=O)[*:2]; hTyr(3S-OH,4S-OH,3'-OSO3H) = N[C@H](C(=O)O)[C@H](O)[C@@H](O)c1ccc(O)c(OS(=O)(=O)O)c1; pTerphenylCO(4''-OnC5H11) = CCCCCOc1ccc(-c2ccc(-c3ccc(C(=O)*)cc3)cc2)cc1; Orn(4R-OH,5R-OH) = O=C([C@H](C[C@@H](O)[C@@H](O)N[*:3])N[*:1])[*:2]; hTyr(3S-OH,4S-OH) = N[C@H](C(=O)O)[C@H](O)[C@@H](O)c1ccc(O)cc1; Pro(3S-OH,4S-Me) = C[C@H]1CN[C@H](C(=O)O)[C@H]1O; X2 = CCCCCOc1ccc(-c2cc(-c3ccc(C(=O)*)cc3)no2)cc1; Gln(3R-OH) = NC(=O)C[C@@H](O)[C@H](N)C(=O)O; X1 = C[C@H]1CN([*:1])C(C(=O)[*:2])C1O; Hyp = O=C(O)[C@@H]1C[C@@H](O)CN1; ξT = CC(O)C(N)C(=O)O
Assays:
Candida albicans SC5314 = assay: Immunocompetent DBA/2 mouse model of disseminated candidiasis, treatment, kidney CFU; type: in vivo; conditions: 24 hr
Procedure: The efficacy of CD101 SC was studied in an immunocompetent DBA/2 mouse model of disseminated candidiasis. Mice (5/grp) were challenged with Candida albicans SC5314 (ATCC: MYA-2876, fluconazole-sensitive human clinical isolate shown to be pathogenic in mice) via IV injection (100 μL, 5.0 log CFU/mouse) and treated with CD101 SC (1, 3 or 10 mg/kg). Micafungin via IP administration was tested as a positive control at the same 3 doses. At 24 hours following challenge, kidneys were harvested and processed for CFU enumeration. All comparisons were made between the treatment and time-matched vehicle groups.

A. fumigatus AF293 = assay: Pulmonary aspergillosis in neutropenic ICR mice (Examples 14, 15), prophylaxis, survival; type: in vivo, Aspergillus fumigatus
Procedure: Pulmonary aspergillosis: ICR mice (10/grp) were made neutropenic by cyclophosphamide on Day −4 (150 mg/kg), and CPM/cortisone on Day −1 (150/175 mg/kg). Intranasal infection with A. fumigatus AF293 (10^5 CFU/mouse) on Day 0. Prophylaxis CD101 as a single dose (IP; 5, 10, 20 mg/kg) or posaconazole (PO; 2 and 10 mg/kg) 1 day prior to infection. Survival monitored for 10 days.
Pulmonary aspergillosis: ICR mice (10/grp) were made neutropenic by cyclophosphamide on Day −4 (150 mg/kg), and cyclophosphamide/cortisone was given on Day −1 (150/175 mg/kg). Intranasal challenge with A. fumigatus AF293 (10^5 CFU/mouse) was initiated on Day 0 and prophylaxis with CD101 as a single dose (IP; 5, 10, 20 mg/kg) or posaconazole (PO; 2 and 10 mg/kg) was started 1 day prior to infection. Survival was monitored for 10 days.

[1] = system: Aspergillus fumigatus strain AF293; assay: Murine model of pulmonary aspergillosis (Example 16), survival and lung burden; type: in vivo; conditions: for Mean Survival / Median Survival / survival time post infection, range / mice that survived to the end of the study: Day −1; for mice that survived to the end of the study: 6 mice per group, 10 days; for Group Geometric mean / Log10 Group Geometric mean / Log10 reduction from vehicle control: terminal lung burden
Procedure: Animal strain and housing. Mice used in these studies were supplied by Charles River (Margate UK) and were specific pathogen free. The strain of mice used was ICR (also known as CD1 Mice) which is a well characterized outbred murine strain. Male mice were 11-15 g on receipt and allowed to acclimatize for at least 7 days.
Immunosuppression. Mice were immunosuppressed on Day −4 with 150 mg/kg cyclophosphamide administered intraperitoneally (IP), and on Day −1 with 150 mg/kg cyclophosphamide IP and 175 mg/kg cortisone acetate administered subcutaneously (SC). To prevent bacterial infection due to the immunosuppression mice were given once daily 50 mg/kg ceftazidime.
Preparation of Organism and Infection. A. fumigatus strain AF293 inoculum was prepared from spore cultures grown on Sabouraud Dextrose agar (SAB) containing 50 μg/mL chloramphenicol (SABC) in vented tissue culture flasks. Following incubation for 7-10 days at 30° C., spore cultures were washed in sterile phosphate buffered saline (PBS) containing 0.05% Tween 80. Spore count was determined using a haemocytometer and spores were diluted in PBS to ˜6.9×10^6 CFU/mL. Inoculum concentration was confirmed by quantitative culture onto SABC agar.
Neutropenic mice lungs were infected with 0.04 mL (0.02 mL/nare) of ˜4.17×10^6 CFU/mL (˜1.67×10^5 CFU/mouse) of A. fumigatus AF293 by intranasal (IN) instillation under temporary 2.5% isoflurane induced anesthesia.
Preparation of Test Articles. Micafungin (Mycamine, Astellas) was provided as a 50 mg vial (Lot 02323002, expiry 08/2017) and was prepared as per manufacturer's instructions by adding 5 mL saline for injection (SFI) directly into the vial to make up a 10 mg/mL stock solution. This solution was then diluted further in SFI to a working concentration of 0.5 mg/mL. […] It was prepared fresh once and stored at 4° C. until required.
Posaconazole (Noxafil 40 mg/mL oral suspension, Merck Sharp & Dohme Limited) was provided as a 40 mg/mL oral suspension (Lot N00801, expiry 04/2019). This suspension was then diluted further in water for infection (WFI) to a working concentration of 0.2 and 1 mg/mL. The suspension was administered orally (PO) at 10 mL/kg for 2 and 10 mg/kg doses respectively, was prepared fresh once and stored at 4° C. until required.
Test article CD101 stock was prepared at 6 mg/mL in 10% DMSO/1% Tween 20 diluent. A clear non particulate solution was obtained following gentle mixing. […] All doses were administered IP at 10 mL/kg. The study doses were kept at 4° C. until required.
Treatment. For this study, treatments were initiated on Day 1 pre infection according to treatment groups outlined in Table 22. A total of 36 mice (6/treatment group) were used in the study.
Endpoints. The primary endpoint for this study was survival within agreed ethical limits (>20% weight loss, severe hypothermia <34° C., inability to reach food or drink, severe hunching). Mice were monitored by daily weight measurements with observations as frequently as clinical condition required.
Mice presenting with severe clinical deterioration were humanely euthanized using an overdose of pentobarbitone administered by IP injection following clinical assessment and the time of death was recorded. Animal carcasses were stored at −20° C. before quantitative assessment of burden.
Ten days post infection all surviving animals were weighed and had their clinical condition assessed prior to being euthanized. Final survival numbers were recorded and analysed as described below and carcasses frozen at −20° C. prior to further processing.
Lung burden. A secondary endpoint for the study was terminal lung tissue burden. Immediately following confirmation of death, carcasses were frozen at −20° C. prior to tissue dissection and processing. The frozen carcasses were thawed at room temperature, the lungs removed and placed into pre-weighed bead-beating tubes containing 2 mL of PBS and subjected to mechanical disruption. […]

CCCCCOc1ccc(-c2ccc(-c3ccc(C(=O)N[C@H]4C[C@@H](O)[C@@H](OCC[N+](C)(C)C)NC(=O)C5C(O)[C@@H](C)CN5C(=O)[C@H]([C@@H](C)O)NC(=O)[C@H]([C@H](O)[C@@H](O)c5ccc(O)cc5)NC(=O)[C@@H]5C[C@@H](O)CN5C(=O)C(C(C)O)NC4=O)cc3)cc2)cc1 (stereo partly drawn) [CD101] ({pTerphenylCO(4''-OnC5H11)}-[Orn(4R-OH,5R-OCH2CH2NMe3+)][ξT][Hyp][hTyr(3S-OH,4S-OH)]T[X1]; lactam 1-C)
animals completely cleared of CFU burden (Candida albicans SC5314; 1 mg/kg SC): 4 of 5
kidney CFU (Candida albicans SC5314; 1, 3 and 10 mg/kg SC, vs vehicle): significant reduction in kidney CFU
kidney CFU (Candida albicans SC5314; 3 or 10 mg/kg SC): complete CFU clearance
survival (A. fumigatus AF293; 20 mg/kg IP one day prior to infection (human 400 mg AUC equivalent)): increase in survival relative to control
survival rate (A. fumigatus AF293; 20 mg/kg IP one day prior to infection, 10 days): 30%
survival rate (A. fumigatus AF293; single dose IP (5, 10, 20 mg/kg) one day prior to infection): dose-dependent increase in survival rate
Mean Survival ([1]; 20 mg/kg IP once): 130.4 h
Median Survival ([1]; 20 mg/kg IP once): 74.7 h
survival time post infection, range ([1]; 20 mg/kg IP once): 70 to 240 h
mice that survived to the end of the study ([1]; 20 mg/kg IP once): Two
Mean Survival ([1]; 60 mg/kg IP once): 122.7 h
Median Survival ([1]; 60 mg/kg IP once): 88.7 h
survival time post infection, range ([1]; 60 mg/kg IP once): 73-240
mice that survived to the end of the study ([1]; 60 mg/kg IP once): A single mouse
survival vs vehicle (conclusion) ([1]; 20 and 60 mg/kg once one day pre-infection): slight increase in survival, which was statistically longer than the vehicle treatment
Group Geometric mean ([1]; 20 mg/kg IP Day −1): 4.37 × 10^3 CFU/g
Log10 Group Geometric mean ([1]; 20 mg/kg IP Day −1): 3.64 CFU/g
Log10 reduction from vehicle control ([1]; 20 mg/kg IP Day −1): 0.53 CFU/g
Group Geometric mean ([1]; 60 mg/kg IP Day −1): 1.38 × 10^4 CFU/g
Log10 Group Geometric mean ([1]; 60 mg/kg IP Day −1): 4.14 CFU/g
Log10 reduction from vehicle control ([1]; 60 mg/kg IP Day −1): 0.03 CFU/g

CCCCCOc1ccc(-c2cc(-c3ccc(C(=O)N[C@H]4C[C@@H](O)[C@@H](O)NC(=O)[C@@H]5[C@@H](O)[C@@H](C)CN5C(=O)[C@H]([C@H](O)CC(N)=O)NC(=O)[C@H]([C@H](O)[C@@H](O)c5ccc(O)c(OS(=O)(=O)O)c5)NC(=O)[C@@H]5C[C@@H](O)CN5C(=O)[C@H]([C@@H](C)O)NC4=O)cc3)no2)cc1 [Micafungin, micafungin, reference compound] (X2-[Orn(4R-OH,5R-OH)]T[Hyp][hTyr(3S-OH,4S-OH,3'-OSO3H)][Gln(3R-OH)][Pro(3S-OH,4S-Me)]; lactam 1-C)
kidney CFU (Candida albicans SC5314; 10 mg/kg IP only): complete clearance
kidney CFU (Candida albicans SC5314; 1, 3 and 10 mg/kg IP): good dose response in CFU reduction
survival rate (A. fumigatus AF293; 5 mg/kg (human-equivalent 100 mg)): no survivors
Mean Survival ([1]; 5 mg/kg IP once): 92 h and 92.0 h
Median Survival ([1]; 5 mg/kg IP once): 80 h and 80.0 h
survival time post infection, range ([1]; 5 mg/kg IP once): 71 to 162 h
survival vs vehicle (conclusion) ([1]; 5 mg/kg once one day pre-infection): did not show any improvement in survival
Group Geometric mean ([1]; 5 mg/kg IP Day −1): 6.61 × 10^3 CFU/g
Log10 Group Geometric mean ([1]; 5 mg/kg IP Day −1): 3.82 CFU/g
Log10 reduction from vehicle control ([1]; 5 mg/kg IP Day −1): 0.35 CFU/g

— patent publication US20240076347A1, “METHODS FOR PREVENTING FUNGAL INFECTIONS” (Cidara Therapeutics, Inc., priority 2016, published 2024)
